Source: ChEMBL document CHEMBL3046676, “Baseline susceptibility of Bemisia tabaci (Genn.) biotype B in southern Florida to cyantraniliprole” (2013)

Columns and labels:
Assay type in all cases: functional
[1] = tested on: Bemisia tabaci; assay: Insecticidal activity against field-collected population of Bemisia tabaci (sweet potato whitefly) biotype B GCC-AM ST (F4-5) adults infested in cotton seedlings cut stem assessed as mortality measured after 5 days by stabilization treatment based systemic uptake bioassay
[2] = tested on: Bemisia tabaci; assay: Insecticidal activity against field-collected population of Bemisia tabaci (sweet potato whitefly) biotype B Homestead #1 (F4) eggs in cotton seedlings cut stem assessed as mortality measured after 14 days by stabilization treatment based systemic uptake bioassay
[3] = tested on: Bemisia tabaci; assay: Resistance ratio of LC50 for field-collected population of Bemisia tabaci (sweet potato whitefly) biotype B Cortez #1 (F4) adults to LC50 for laboratory strain of Bemisia tabaci (sweet potato whitefly) biotype B adults
[4] = tested on: Bemisia tabaci; assay: Insecticidal activity against field-collected population of Bemisia tabaci (sweet potato whitefly) biotype B GCC-EV-Tom (F4) eggs in cotton seedlings cut stem assessed as mortality measured after 14 days by stabilization treatment based systemic uptake bioassay
[5] = tested on: Bemisia tabaci; assay: Insecticidal activity against field-collected population of Bemisia tabaci (sweet potato whitefly) biotype B Parrish (F3) eggs in cotton seedlings cut stem assessed as mortality measured after 14 days by stabilization treatment based systemic uptake bioassay
[6] = tested on: Bemisia tabaci; assay: Insecticidal activity against field-collected population of Bemisia tabaci (sweet potato whitefly) biotype B Devil's garden KAC (F3) eggs in cotton seedlings cut stem assessed as mortality measured after 14 days by stabilization treatment based systemic uptake bioassay
[7] = tested on: Bemisia tabaci; assay: Resistance ratio of LC50 for field-collected population of Bemisia tabaci (sweet potato whitefly) biotype B GCC-AM (p) (F2) adults to LC50 for laboratory strain of Bemisia tabaci (sweet potato whitefly) biotype B adults
[8] = tested on: Bemisia tabaci; assay: Insecticidal activity against field-collected population of Bemisia tabaci (sweet potato whitefly) biotype B Myakka (F2) eggs in cotton seedlings cut stem assessed as mortality measured after 14 days by stabilization treatment based systemic uptake bioassay
[9] = tested on: Bemisia tabaci; assay: Insecticidal activity against field-collected population of Bemisia tabaci (sweet potato whitefly) biotype B GCC-AM (p) (F2) adults infested in cotton seedlings cut stem assessed as mortality measured after 5 days by stabilization treatment based systemic uptake bioassay
[10] = tested on: Bemisia tabaci; assay: Insecticidal activity against field-collected population of Bemisia tabaci (sweet potato whitefly) biotype B Cortez #1 (F4) adults infested in cotton seedlings cut stem assessed as mortality measured after 5 days by stabilization treatment based systemic uptake bioassay
[11] = tested on: Bemisia tabaci; assay: Resistance ratio of LC50 for field-collected population of Bemisia tabaci (sweet potato whitefly) biotype B GCC-AM ST (F4-5) adults to LC50 for laboratory strain of Bemisia tabaci (sweet potato whitefly) biotype B adults
[12] = tested on: Bemisia tabaci; assay: Insecticidal activity against field-collected population of Bemisia tabaci (sweet potato whitefly) biotype B Homestead #1 (F2-F3) eggs in cotton seedlings cut stem assessed as mortality measured after 14 days by stabilization treatment based systemic uptake bioassay
[13] = tested on: Bemisia tabaci; assay: Insecticidal activity against laboratory strain of Bemisia tabaci (sweet potato whitefly) biotype B adults infested in cotton seedlings cut stem assessed as mortality measured after 5 days by stabilization treatment based systemic uptake bioassay

CNC(=O)c1cc(C#N)cc(C)c1NC(=O)c1cc(Br)nn1-c1ncccc1Cl [CYANTRANILIPROLE]
LC50 [1]: 0.037 mgAi/L | LC50 [2]: 0.023 mgAi/L | RatioLC50 [3]: 1.174 | LC50 [4]: 0.034 mgAi/L | LC50 [5]: 0.015 mgAi/L | LC50 [6]: 0.033 mgAi/L | RatioLC50 [7]: 1.207 | LC50 [8]: 0.023 mgAi/L | LC50 [9]: 0.059 mgAi/L | LC50 [10]: 0.058 mgAi/L | RatioLC50 [11]: 0.752 | LC50 [12]: 0.013 mgAi/L | LC50 [13]: 0.049 mgAi/L
